Article PMC4766503, “A novel peptide with potent and broad-spectrum antiviral activities against multiple respiratory viruses” (Scientific Reports, 2016)
Peptide text beside a SMILES is read from it.

Assays:
[1] = test system: endosomal acidification in H1N1-infected MDCK cells; format: cell-based, canine
[2] = test system: H1N1 virus; conditions: for 50% inhibitory concentration (IC50) against H1N1: virus, 1 h
[3] = molecular target: MERS-CoV S1 (Middle East respiratory syndrome-related coronavirus, UniProt K9N5Q8)
MERS-CoV S1, sequence (K9N5Q8 18-751 limits assumed): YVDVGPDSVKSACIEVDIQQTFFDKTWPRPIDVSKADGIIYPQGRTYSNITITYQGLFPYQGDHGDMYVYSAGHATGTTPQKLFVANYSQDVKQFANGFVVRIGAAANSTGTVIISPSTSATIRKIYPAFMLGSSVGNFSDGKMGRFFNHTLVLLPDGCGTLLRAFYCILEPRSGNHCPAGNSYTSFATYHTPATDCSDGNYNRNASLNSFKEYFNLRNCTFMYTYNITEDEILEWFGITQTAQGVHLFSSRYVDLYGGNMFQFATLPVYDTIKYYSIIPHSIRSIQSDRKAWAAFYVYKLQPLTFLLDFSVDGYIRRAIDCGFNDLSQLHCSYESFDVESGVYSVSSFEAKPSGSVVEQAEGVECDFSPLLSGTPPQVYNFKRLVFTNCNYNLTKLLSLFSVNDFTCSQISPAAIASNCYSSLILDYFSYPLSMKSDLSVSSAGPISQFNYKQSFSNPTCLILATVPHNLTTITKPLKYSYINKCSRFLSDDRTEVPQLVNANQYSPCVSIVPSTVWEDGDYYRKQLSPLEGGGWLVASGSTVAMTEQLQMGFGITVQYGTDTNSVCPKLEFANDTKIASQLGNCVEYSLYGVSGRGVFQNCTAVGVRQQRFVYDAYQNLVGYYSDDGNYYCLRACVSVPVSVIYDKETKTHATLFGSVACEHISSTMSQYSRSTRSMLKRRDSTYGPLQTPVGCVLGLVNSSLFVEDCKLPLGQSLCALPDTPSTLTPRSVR

[4] = mouse, in vivo
[5] = test system: MDCK cells; conditions: 24 h
[6] = test system: MERS-CoV
[7] = test system: SARS-CoV; conditions: in vivo
[8] = test system: influenza A virus H3N2, H5N1, H7N7 and H7N9; conditions: H7N7 and H7N9, 24 h
[9] = synthetic P9, water
[10] = molecular target: H1N1 viral HA (Influenza A virus, UniProt C3W5S1)
H1N1 viral HA, sequence (C3W5S1 entry or part of it, added parts left off): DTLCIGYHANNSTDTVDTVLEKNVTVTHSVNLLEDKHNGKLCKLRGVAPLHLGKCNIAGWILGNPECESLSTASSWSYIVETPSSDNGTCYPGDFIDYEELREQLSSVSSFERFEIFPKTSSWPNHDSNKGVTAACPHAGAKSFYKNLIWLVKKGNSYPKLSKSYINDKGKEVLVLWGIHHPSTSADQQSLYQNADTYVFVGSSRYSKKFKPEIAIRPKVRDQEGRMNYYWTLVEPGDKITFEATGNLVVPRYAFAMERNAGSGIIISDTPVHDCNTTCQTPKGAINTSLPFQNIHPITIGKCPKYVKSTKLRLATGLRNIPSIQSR

[11] = molecular target: MERS-CoV S2 (Middle East respiratory syndrome-related coronavirus, UniProt K9N5Q8)
MERS-CoV S2, sequence (K9N5Q8 752-1353 limits assumed): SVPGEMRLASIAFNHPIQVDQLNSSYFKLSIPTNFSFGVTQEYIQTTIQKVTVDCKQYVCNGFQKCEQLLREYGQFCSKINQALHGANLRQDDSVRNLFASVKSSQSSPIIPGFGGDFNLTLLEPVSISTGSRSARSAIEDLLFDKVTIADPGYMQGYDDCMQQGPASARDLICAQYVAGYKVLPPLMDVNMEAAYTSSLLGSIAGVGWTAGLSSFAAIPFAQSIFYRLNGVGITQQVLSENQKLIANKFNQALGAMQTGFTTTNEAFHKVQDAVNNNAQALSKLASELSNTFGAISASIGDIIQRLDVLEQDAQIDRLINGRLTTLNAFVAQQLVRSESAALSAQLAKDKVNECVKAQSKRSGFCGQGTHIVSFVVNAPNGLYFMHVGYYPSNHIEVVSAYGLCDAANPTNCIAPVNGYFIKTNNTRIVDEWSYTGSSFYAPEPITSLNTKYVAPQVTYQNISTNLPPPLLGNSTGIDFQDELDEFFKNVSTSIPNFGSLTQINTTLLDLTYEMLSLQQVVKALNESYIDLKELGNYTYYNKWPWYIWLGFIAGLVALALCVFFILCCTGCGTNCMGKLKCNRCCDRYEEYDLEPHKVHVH

[12] = test system: H7N9 virus; parameters: species or system BALB/c mice; conditions: mouse, in vivo
[13] = test system: H1N1 viral NA
[14] = test system: H5N1 virus; parameters: species or system BALB/c mice; conditions: mouse, in vivo
[15] = in vivo
[16] = test system: H1N1 virus; parameters: species or system BALB/c mice; conditions: mouse, in vivo
[17] = test system: SARS-CoV
[18] = test system: HA-cell membrane fusion in 293FT cells expressing HA; conditions: low pH 5.0

## CO/C1=C\C(C)=C\[C@@H](C)[C@@H](O)[C@@H](C)C/C(C)=C/C=C/[C@H](OC)[C@@H]([C@@H](C)[C@@H](O)[C@H](C)[C@@]2(O)C[C@@H](O)[C@H](C)[C@@H](C(C)C)O2)OC1=O [Bafilomycin A1, reference compound]
[1]
  pH lowering (acidification) in endosomes: acidification was abolished

## Cl.N [NH4Cl, ammonium chloride, reference compound]
[1]
  pH lowering (acidification) in endosomes: acidification was abolished

## CC[C@H](C)[C@H](NC(=O)[C@H](C)NC(=O)CNC(=O)[C@@H](N)CC(N)=O)C(=O)N[C@@H](CS)C(=O)N[C@@H](Cc1c[nH]c2ccccc12)C(=O)NCC(=O)N1CCC[C@H]1C(=O)N[C@@H](CS)C(=O)N1CCC[C@H]1C(=O)N[C@H](C(=O)N[C@@H](C)C(=O)N[C@@H](Cc1ccccc1)C(=O)N[C@@H](CCCNC(=N)N)C(=O)N[C@@H](CCC(N)=O)C(=O)N[C@H](C(=O)NCC(=O)N[C@@H](CC(N)=O)C(=O)N[C@@H](CS)C(=O)NCC(=O)N[C@@H](Cc1c[nH]cn1)C(=O)N[C@@H](Cc1ccccc1)C(=O)N[C@@H](CCCCN)C(=O)N[C@H](C(=O)N[C@@H](CCCNC(=N)N)C(=O)N[C@@H](CS)C(=O)N[C@@H](CS)C(=O)N[C@@H](CCCCN)C(=O)N[C@H](C(=O)N[C@@H](CCCNC(=N)N)C(=O)N[C@@H](CC(=O)O)C(=O)N[C@@H](CCC(=O)O)C(=O)N[C@@H](CC(=O)O)C(=O)O)[C@@H](C)CC)C(C)C)[C@@H](C)CC)[C@@H](C)O [Peptide P9-aci-1] (H-NGAICWGPCPTAFRQIGNCGHFKVRCCKIRDED-OH)
[2]
  50% inhibitory concentration (IC50) against H1N1: > 100 µg/mL
[1]
  pH lowering (acidification) in endosomes: unaffected

## CC[C@H](C)[C@H](NC(=O)[C@H](C)NC(=O)CNC(=O)[C@@H](N)CC(N)=O)C(=O)N[C@@H](CS)C(=O)N[C@@H](Cc1c[nH]c2ccccc12)C(=O)NCC(=O)N1CCC[C@H]1C(=O)N[C@@H](CS)C(=O)N1CCC[C@H]1C(=O)N[C@H](C(=O)N[C@@H](C)C(=O)N[C@@H](Cc1ccccc1)C(=O)N[C@@H](CCCNC(=N)N)C(=O)N[C@@H](CCC(N)=O)C(=O)N[C@H](C(=O)NCC(=O)N[C@@H](CC(N)=O)C(=O)N[C@@H](CS)C(=O)NCC(=O)N[C@@H](Cc1c[nH]cn1)C(=O)N[C@@H](Cc1ccccc1)C(=O)N[C@@H](CCCCN)C(=O)N[C@H](C(=O)N[C@@H](CCCNC(=N)N)C(=O)N[C@@H](CS)C(=O)N[C@@H](CS)C(=O)N[C@@H](CCCCN)C(=O)N[C@H](C(=O)N[C@@H](CCCNC(=N)N)C(=O)O)[C@@H](C)CC)C(C)C)[C@@H](C)CC)[C@@H](C)O [Peptide P9] (H-NGAICWGPCPTAFRQIGNCGHFKVRCCKIR-OH)
[3]
  binding to S1 of MERS-CoV: not S1
[4]
  food consumption or sickness: no obvious reduction of food consumption or sickness
[4]; 50 mg/kg
  body weight loss, i.n.: less than 10%
[4]; ip, 500 mg/kg
  body weight loss, i.p.: less than 10%
[5]
  50% toxic concentration (TC50): 380 µg/mL
[2]
  antiviral activity among short peptides: strongest antiviral activity
  50% inhibitory concentration (IC50) against H1N1: 1.2 µg/mL
[6]
  inhibition of MERS-CoV infection: more than 95%
[6]; 24 h
  IC50 against MERS-CoV: about 5 μg/ml
[7]
  virus infection in mouse lungs: significantly inhibited
[8]
  IC50s against H3N2, H5N1, H7N7 and H7N9: 1.5 to 4.8 µg/mL
[9]
  solubility and stability in water: highly soluble and stable in water
[1]
  pH lowering (acidification) in endosomes: acidification was abolished
[10]
  binding to HA: bound to HA
[11]
  binding to S2 of MERS-CoV: bound to S2
[12]
  mice protected from lethal H7N9 challenge, prophylaxis: 50%
  mice protected from lethal H7N9 challenge, therapy: 50%
[13]
  binding to NA: not NA
[14]
  mice protected from lethal H5N1 challenge, prophylaxis: 44%
  mice protected from lethal H5N1 challenge, therapy: 50%
[15]
  P9 signal on surface of mouse bronchial tubes after administration: almost undetectable level
[16]
  mice protected from lethal challenge, P9 given 2 h before challenge: 60%
  mice protected from lethal challenge, P9 given 4 h before challenge: 30%
  mice protected from lethal challenge, P9 given 8 h before challenge: 20%
  survival rate, prophylactic: 100%
  survival rate, therapeutic: 60%
  viral loads in lung tissues: significantly lower
[17]
  inhibition of SARS-CoV infection: more than 95%
[17]; 24 h
  IC50 against SARS-CoV: about 5 μg/ml
[18]
  HA-cell membrane fusion (polykaryon formation): did not directly inhibit

## CC(=O)N[C@H]1[C@H]([C@H](O)[C@H](O)CO)OC(C(=O)O)=C[C@@H]1N=C(N)N [Zanamivir, reference compound]
[12]
  mice protected from lethal H7N9 challenge, prophylaxis: 60%
  mice protected from lethal H7N9 challenge, therapy: 70%
[14]
  mice protected from lethal H5N1 challenge, prophylaxis: 50%
  mice protected from lethal H5N1 challenge, therapy: 60%
[16]
  survival rate, therapeutic: 80%
